Experimental data taken from patent US20260284002A1, “COMPOSITIONS AND METHODS OF CONTROLLING MAMMALIAN SATIETY” (VitaKey Inc., priority 2023, published 2026).

Experiment: Release of linoleic acid in simulated intestinal fluid with 0.2% (w/v) sodium taurocholate
Format: physicochemical
Conditions: simulated intestinal fluid 37° C. with 0.2% (w/v) sodium taurocholate; FIG. 25B
Procedure: A mixture of 40% (w/w) linoleic acid, 30% (w/w) 27-Stearine, and 30% (w/w) CITREM was heated to 80° C. while stirring to allow for complete mixing, followed by cooling at 4° C. for 1 hour. […] Formulated linoleic acid microparticles were added to 3 of these 6 tubes, while unformulated linoleic acid was added to the remaining 3 tubes.

- emulsification in bile-salt rich simulated intestinal fluid: rapidly emulsified
Compound: CCCCC/C=C\C/C=C\CCCCCCCC(=O)O [unformulated linoleic acid, linoleic acid]
